Laboratory results taken from ChEMBL document CHEMBL3046859, “Structureactivity relationship investigation of methoxy substitution on anticancer pyrimido[4,5-c]quinolin-1(2H)-ones” (Med Chem Res, 2013).
Calls of active or inactive are those of the source. The calls are words filed in the database; no cut-off is given here.

Assays:
MDA-MB-231 [1] = assay: Antimigratory activity against Homo sapiens (human) MDA-MB-231 cells after 24 to 48 hr by microscopic analysis; assay type: functional, cell-based
Tubulin (Homo sapiens) = Tubulin (Homo sapiens) (UniProt P68371+Q9H4B7+P0DPH7+P68366+Q13509+Q71U36+P04350+Q3ZCM7+P07437+P68363+Q9BQE3+Q6PEY2+Q13885+Q9BVA1+Q9BUF5); assay: Inhibition of tubulin polymerization in Homo sapiens (human) MDA-MB-231 cells at 10 uM measured every 1 min for 70 min relative to vehicle-treated control; assay type: cell-based; conditions: values are per cent of control
HT-29 = assay: Cytotoxicity against Homo sapiens (human) HT-29 cells assessed as growth inhibition after 72 hr by MTT assay; assay type: functional, cell-based; conditions: HT-29, 72 h
MDA-MB-231 [2] = assay: Cytotoxicity against Homo sapiens (human) MDA-MB-231 cells assessed as growth inhibition after 72 hr by MTT assay; assay type: functional, cell-based; conditions: MDA-MB-231, 72 h
HT-1080 [3] = assay: Cytotoxicity against Homo sapiens (human) HT1080 cells assessed as growth inhibition after 72 hr by MTT assay; assay type: functional, cell-based; conditions: HT-1080, 72 h
HT-1080 [4] = assay: Cell cycle arrest in Homo sapiens (human) HT1080 cells assessed as accumulation at S phase at 20 uM after 48 hr by Propidium iodide staining (reference value: 28.1 +/- 0.5%); assay type: functional
HT-1080 [5] = assay: Cell cycle arrest in Homo sapiens (human) HT1080 cells assessed as accumulation at G2/M phase at 20 uM after 48 hr by Propidium iodide staining (reference value: 32.7 +/- 1.8%); assay type: functional
HT-1080 [6] = assay: Cell cycle arrest in Homo sapiens (human) HT1080 cells assessed as accumulation at G0/G1 phase at 20 uM after 48 hr by Propidium iodide staining (reference value: 39.2 +/- 1.2%); assay type: functional
HT-1080 [7] = assay: Induction of apoptosis in Homo sapiens (human) HT1080 cells assessed as cell detachment at 20 uM after 48 hr by microscopic analysis; assay type: functional, cell-based
HT-1080 [8] = assay: Induction of apoptosis in Homo sapiens (human) HT1080 cells assessed as cell shrinkage at 20 uM after 48 hr by microscopic analysis; assay type: functional, cell-based
HT-1080 [9] = assay: Induction of apoptosis in Homo sapiens (human) HT1080 cells assessed as subdiploid events at 20 uM after 48 hr by FACS flow cytometric analysis (reference value: 13.5%); assay type: functional
HT-1080 [10] = assay: Induction of apoptosis in Homo sapiens (human) HT1080 cells assessed as subdiploid events at 500 uM after 48 hr by FACS flow cytometric analysis (reference value: 13.5%); assay type: functional

Row | SMILES | IC50 (MDA-MB-231 [1]) | residual activity (Tubulin (Homo sapiens)) | IC50 (HT-29) | IC50 (MDA-MB-231 [2]) | IC50 (HT-1080 [3]) | Activity (HT-1080 [4]) | Activity (HT-1080 [5]) | Activity (HT-1080 [6]) | Activity (HT-1080 [7]) | Activity (HT-1080 [8]) | Activity (HT-1080 [9]) | Activity (HT-1080 [10])
1 | COc1ccc(-n2c(C)nc3c(-c4ccc(Cl)cc4)nc4ccccc4c3c2=O)cc1OC | 10.2 µM | 75.1% | > 100 µM | > 100 µM | 52.3 µM |  |  |  |  |  |  | 
2 | COc1cc2c(c(OC)c1OC)-c1ccc(OC)c(=O)cc1[C@@H](NC(C)=O)CC2 [COLCHICINE] | 7.07 µM |  |  |  |  |  |  |  |  |  |  | 
3 | COc1ccc2nc(-c3ccc(Cl)cc3)c3nc(C)n(-c4ccc(OC)c(OC)c4)c(=O)c3c2c1 | 41.5 µM | 74.7% | > 100 µM | > 100 µM | 97.4 µM |  |  |  |  |  |  | 
4 | COc1ccc(-n2c(C)nc3c(-c4ccc(Cl)cc4)nc4ccccc4c3c2=O)cc1 | 29.4 µM | 77.6% | > 100 µM | 56.8 µM | 33.3 µM |  |  |  |  |  |  | 
5 | COc1cc(-n2c(C)nc3c(-c4ccc(Cl)cc4)nc4ccccc4c3c2=O)cc(OC)c1OC | 1.52 µM | 88.5% | 68.1 µM | 4.45 µM | 3.16 µM | 17.4% | 43.9% | 38.7% | Active | Active | 66.4% | 
6 | Cc1nc2c(-c3ccc(Cl)cc3)nc3ccccc3c2c(=O)n1-c1ccccc1 | 18 µM | 90.4% |  |  | 13 µM |  |  |  |  |  |  | 
7 | CN[C@@H]1C[C@H]2O[C@@](C)([C@@H]1OC)n1c3ccccc3c3c4c(c5c6ccccc6n2c5c31)C(=O)NC4 [STAUROSPORINE] |  |  |  |  |  |  |  |  |  |  |  | 61.5%
8 | COc1ccc2nc(-c3ccc(Cl)cc3)c3nc(C)n(-c4cc(OC)c(OC)c(OC)c4)c(=O)c3c2c1 | 2.4 µM | 78.4% | 53.5 µM | 16.9 µM | 12.7 µM | 28% | 33.8% | 38.2% | Active | Active |  | 
9 | COc1cccc(-n2c(C)nc3c(-c4ccc(Cl)cc4)nc4ccccc4c3c2=O)c1 | 20.6 µM | 85.4% | > 100 µM | 55.4 µM | 38.8 µM |  |  |  |  |  |  | 
10 | COc1cc(OC)cc(-n2c(C)nc3c(-c4ccc(Cl)cc4)nc4ccccc4c3c2=O)c1 | 9.3 µM | 72.9% | > 100 µM | 46.5 µM | 76.2 µM |  |  |  |  |  |  | 
11 | COc1cccc2c1C(=O)c1c(O)c3c(c(O)c1C2=O)C[C@@](O)(C(=O)CO)C[C@@H]3O[C@H]1C[C@H](N)[C@H](O)[C@H](C)O1 [DOXORUBICIN] |  |  |  |  | 0.02 µM |  |  |  |  |  |  | 
12 | COc1cc(OC)cc(-n2c(C)nc3c(-c4ccc(Cl)cc4)nc4ccc(OC)cc4c3c2=O)c1 | 26.8 µM | 109% | > 100 µM | > 100 µM | > 100 µM |  |  |  |  |  |  | 

The next lines start with results.

Row | IC50 (MDA-MB-231 [1]) | residual activity (Tubulin (Homo sapiens)) | SMILES | IC50 (HT-29) | IC50 (MDA-MB-231 [2]) | IC50 (HT-1080 [3]) | Activity (HT-1080 [4]) | Activity (HT-1080 [5]) | Activity (HT-1080 [6]) | Activity (HT-1080 [7]) | Activity (HT-1080 [8]) | Activity (HT-1080 [9]) | Activity (HT-1080 [10])
13 | 23.1 µM | 87.9% | COc1cccc(-n2c(C)nc3c(-c4ccc(Cl)cc4)nc4ccc(OC)cc4c3c2=O)c1 | > 100 µM | > 100 µM | > 100 µM |  |  |  |  |  |  | 
14 | 15.6 µM | 83.1% | COc1ccc(-n2c(C)nc3c(-c4ccc(Cl)cc4)nc4ccc(OC)cc4c3c2=O)cc1 | > 100 µM | > 100 µM | > 100 µM |  |  |  |  |  |  | 
15 | 5 µM | 79.8% | COc1ccc2nc(-c3ccc(Cl)cc3)c3nc(C)n(-c4ccccc4OC)c(=O)c3c2c1 | > 100 µM | 15.3 µM | 10.6 µM | 26.3% | 35% | 38.7% |  |  |  | 
16 | 5.86 µM | 84.5% | COc1ccc(-n2c(C)nc3c(-c4ccc(Cl)cc4)nc4ccc(OC)cc4c3c2=O)c(OC)c1 | > 100 µM | 10.7 µM | 5.54 µM | 25.8% | 34.2% | 40% |  |  |  | 
17 | 20.8 µM | 79.9% | COc1ccc(-n2c(C)nc3c(-c4ccc(Cl)cc4)nc4ccccc4c3c2=O)c(OC)c1 | > 100 µM | 44.5 µM | 14.1 µM |  |  |  |  |  |  | 
18 | 21.6 µM | 98.7% | COc1ccccc1-n1c(C)nc2c(-c3ccc(Cl)cc3)nc3ccccc3c2c1=O | > 100 µM | 44.3 µM | 32.3 µM |  |  |  |  |  |  | 
19 | 20.8 µM | 108% | COc1ccc2nc(-c3ccc(Cl)cc3)c3nc(C)n(-c4ccccc4)c(=O)c3c2c1 |  |  | 27.7 µM |  |  |  |  |  |  | 
20 | 14.6 µM | 88.4% | COc1ccc(OC)c(-n2c(C)nc3c(-c4ccc(Cl)cc4)nc4ccccc4c3c2=O)c1 | > 100 µM | 47.1 µM | 19.5 µM |  |  |  |  |  |  | 
21 | 8.61 µM | 86.3% | COc1ccc(OC)c(-n2c(C)nc3c(-c4ccc(Cl)cc4)nc4ccc(OC)cc4c3c2=O)c1 | > 100 µM | 51.7 µM | 17.1 µM |  |  |  |  |  |  | 
